Measurements: ChEMBL document CHEMBL6153089, “Design, Synthesis, and Biological Evaluation of Thieno[3,2-d]pyrimidine Derivatives as the First Bifunctional PI3Kδ Isoform Selective/Bromodomain and Extra-Terminal Inhibitors” (J Med Chem, 2025)

How the values were obtained:
[1] = target: Bromodomain-containing protein 2 (Homo sapiens, UniProt P25440); experiment: Inhibition of His-tagged BRD2-BD1 (unknown origin) incubated for 30 mins in presence of ATP by Alphascreen assay
[2] = Half-life in female BALB/c mouse at 1 mg/kg, iv measured after 12 hrs by LC-MS/MS analysis; assay type: ADME, organism-based; settings: in vivo
[3] = target: Glycogen synthase kinase-3 beta (Homo sapiens) (UniProt P49841); experiment: Inhibition of GSK-3beta phosphorylation in human SU-DHL-6 cells incubated for 12 hrs by Western blot analysis; assay type: cell-based; settings: dose 0.25-1 µM
Chain of Glycogen synthase kinase-3 beta (Homo sapiens) (P49841 whole entry, looked up): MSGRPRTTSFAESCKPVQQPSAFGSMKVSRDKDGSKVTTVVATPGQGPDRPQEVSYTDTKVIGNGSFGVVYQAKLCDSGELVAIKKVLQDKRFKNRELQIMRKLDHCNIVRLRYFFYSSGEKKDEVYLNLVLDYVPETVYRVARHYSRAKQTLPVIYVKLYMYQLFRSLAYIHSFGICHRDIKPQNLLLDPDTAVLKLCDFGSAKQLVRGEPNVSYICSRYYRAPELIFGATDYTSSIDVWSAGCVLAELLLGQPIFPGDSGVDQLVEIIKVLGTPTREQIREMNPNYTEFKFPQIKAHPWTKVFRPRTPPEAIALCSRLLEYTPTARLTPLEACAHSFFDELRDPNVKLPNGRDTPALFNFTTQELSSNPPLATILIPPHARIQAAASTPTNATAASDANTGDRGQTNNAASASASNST

SU-DHL-6 [4] = experiment: Induction of apoptosis in human SU-DHL-6 cells assessed as necrotic cells at 0.25 uM incubated for 24 hrs by Annexin V-FITC/PI staining based flow cytometric analysis (reference value: 0.246 %); assay type: functional
[5] = target: Phosphatidylinositol 4,5-bisphosphate 3-kinase catalytic subunit beta isoform (Homo sapiens, UniProt P42338); experiment: Inhibition of PI3Kbeta (unknown origin) incubated for 2 hrs in presence of ATP by ADP-kinaseGlo reagent based assay
Chain of Phosphatidylinositol 4,5-bisphosphate 3-kinase catalytic subunit beta isoform (P42338 whole entry, canonical isoform): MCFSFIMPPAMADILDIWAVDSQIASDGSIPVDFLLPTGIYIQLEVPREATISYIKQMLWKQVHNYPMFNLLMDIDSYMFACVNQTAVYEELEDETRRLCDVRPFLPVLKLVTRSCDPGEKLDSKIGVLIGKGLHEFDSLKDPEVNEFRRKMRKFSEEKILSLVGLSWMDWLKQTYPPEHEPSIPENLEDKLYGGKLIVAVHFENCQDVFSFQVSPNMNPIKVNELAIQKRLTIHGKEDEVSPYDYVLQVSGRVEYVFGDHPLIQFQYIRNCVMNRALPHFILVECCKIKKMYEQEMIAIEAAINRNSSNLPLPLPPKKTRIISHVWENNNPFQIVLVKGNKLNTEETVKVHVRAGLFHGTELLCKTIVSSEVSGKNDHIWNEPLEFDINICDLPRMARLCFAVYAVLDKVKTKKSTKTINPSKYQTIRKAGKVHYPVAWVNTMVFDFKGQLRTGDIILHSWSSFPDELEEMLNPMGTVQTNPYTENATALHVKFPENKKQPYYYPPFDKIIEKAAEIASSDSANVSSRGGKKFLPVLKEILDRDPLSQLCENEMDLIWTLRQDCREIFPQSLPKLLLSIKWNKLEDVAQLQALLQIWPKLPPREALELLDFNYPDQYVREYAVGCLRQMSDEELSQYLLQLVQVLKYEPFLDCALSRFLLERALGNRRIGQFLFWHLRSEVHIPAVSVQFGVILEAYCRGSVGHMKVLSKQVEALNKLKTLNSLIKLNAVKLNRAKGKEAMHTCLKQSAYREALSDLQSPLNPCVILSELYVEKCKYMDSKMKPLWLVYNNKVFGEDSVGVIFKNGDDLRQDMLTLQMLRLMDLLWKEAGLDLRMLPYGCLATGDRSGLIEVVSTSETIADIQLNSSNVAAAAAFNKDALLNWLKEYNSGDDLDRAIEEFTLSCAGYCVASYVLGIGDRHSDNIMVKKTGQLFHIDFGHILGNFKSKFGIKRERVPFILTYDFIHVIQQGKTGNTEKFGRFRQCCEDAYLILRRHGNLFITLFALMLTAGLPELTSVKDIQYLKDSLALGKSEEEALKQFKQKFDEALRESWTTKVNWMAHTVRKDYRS

SUD4 [6] = experiment: Induction of apoptosis in human SU-DHL-4 cells assessed as necrotic cells at 0.5 uM incubated for 24 hrs by Annexin V-FITC/PI staining based flow cytometric analysis (reference value: 0.642 %); assay type: functional
SUD4 [7] = experiment: Induction of apoptosis in human SU-DHL-4 cells assessed as viable cells at 0.5 uM incubated for 24 hrs by Annexin V-FITC/PI staining based flow cytometric analysis (reference value: 65.2 %); assay type: functional; settings: read-out: Activity
[8] = Toxicity in female BALB/c mouse model xenografted with human SU-DHL-6 cells assessed as effect on heart histopathology at 20 mg/kg, po administered once daily via gavage for 15 days by H and E staining based analysis; assay type: organism-based; settings: in vivo, 360 h, time 15 day
[9] = Half-life in female BALB/c mouse at 20 mg/kg, po measured after 24 hrs by LC-MS/MS analysis; assay type: ADME, organism-based; settings: in vivo
SUD4 [10] = experiment: Induction of apoptosis in human SU-DHL-4 cells assessed as late apoptotic cells at 0.5 uM incubated for 24 hrs by Annexin V-FITC/PI staining based flow cytometric analysis (reference value: 6.74 %); assay type: functional
SU-DHL-6 [11] = experiment: Induction of apoptosis in human SU-DHL-6 cells assessed as late apoptotic cells at 1 uM incubated for 24 hrs by Annexin V-FITC/PI staining based flow cytometric analysis (reference value: 6.43 %); assay type: functional
[12] = Cmax in female BALB/c mouse at 20 mg/kg, po measured after 24 hrs by LC-MS/MS analysis; assay type: ADME, organism-based; settings: in vivo
[13] = AUC (0 to t) in female BALB/c mouse at 20 mg/kg, po measured after 24 hrs by LC-MS/MS analysis; assay type: ADME, organism-based; settings: in vivo
SUD4 [14] = experiment: Antiproliferative activity against human SU-DHL-4 cells assessed as inhibition of cell proliferation by measuring reduction in cell count incubated for 6 days by photographic analysis; assay type: functional, cell-based; settings: dose 25-100 nM, time 6.0 day

Chain of Bromodomain-containing protein 2 (P25440 whole entry): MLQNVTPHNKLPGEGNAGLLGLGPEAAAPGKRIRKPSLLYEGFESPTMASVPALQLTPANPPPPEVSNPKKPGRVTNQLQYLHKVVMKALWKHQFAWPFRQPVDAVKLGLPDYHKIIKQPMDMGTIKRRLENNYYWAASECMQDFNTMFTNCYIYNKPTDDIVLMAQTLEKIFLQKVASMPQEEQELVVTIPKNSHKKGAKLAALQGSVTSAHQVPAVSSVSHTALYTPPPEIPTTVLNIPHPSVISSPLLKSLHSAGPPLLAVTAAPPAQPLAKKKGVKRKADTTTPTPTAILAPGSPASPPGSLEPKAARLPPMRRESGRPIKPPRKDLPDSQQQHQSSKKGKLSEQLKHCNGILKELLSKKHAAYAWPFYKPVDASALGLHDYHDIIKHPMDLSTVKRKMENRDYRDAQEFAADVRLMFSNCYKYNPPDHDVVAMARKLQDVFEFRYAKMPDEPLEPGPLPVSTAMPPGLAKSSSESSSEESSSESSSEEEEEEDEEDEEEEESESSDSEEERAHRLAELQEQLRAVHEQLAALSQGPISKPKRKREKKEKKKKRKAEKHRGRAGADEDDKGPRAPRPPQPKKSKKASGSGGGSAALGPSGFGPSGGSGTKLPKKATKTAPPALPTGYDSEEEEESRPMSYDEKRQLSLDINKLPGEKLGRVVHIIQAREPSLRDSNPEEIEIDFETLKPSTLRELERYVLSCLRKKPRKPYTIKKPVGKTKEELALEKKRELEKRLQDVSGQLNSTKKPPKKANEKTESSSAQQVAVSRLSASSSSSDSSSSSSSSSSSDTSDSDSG

IC50 [1]: 18 nM | half-life [2]: 2 h | inhibition [3]: Dose-dependent-effect | IC50 [5]: 4750 nM | half-life [9]: 3.8 h | Cmax [12]: 228 ng/mL | AUC(0-t) at 24 h [13]: 2190 ng·h/mL
Structure (SMILES): Cn1cc(-c2nc(N3CCOCC3)c3sc(CN4CCC(C(C)(C)O)CC4)cc3n2)c2cc[nH]c2c1=O
Activity (SU-DHL-6 [4]): 0.481% | Activity (SUD4 [6]): 2.8% | viability at 0.5 µM (SUD4 [7]): 49.1% | Activity [8]: Non-toxic | Activity (SUD4 [10]): 17.3% | Activity (SU-DHL-6 [11]): 8.72% | Activity (SUD4 [14]): Dose-dependent-effect; Stronger Effect Observed At Lower Concentration Than Those Of Sf2523
